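Method: 48-hour compound exposure of cells in 96-well plates, five concentrations, linear interpolation of endpoints. The concentration for 50% growth inhibition is given as GI50.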 Active and inactive are the calls of the source. Cut-off read from the data, not from the text of the source: active = GI50 up to about 1.1 µM and inactive = higher.
Assays:
Test in all cases: NCI-60 cell line screen, 48 h
[1] = system: HOP-92
[2] = system: DMS-114
[3] = system: OVCAR-4
[4] = system: OVCAR-5
[5] = system: NCI-H460
[6] = system: U-251
[7] = system: RPMI-8226
[8] = system: SN12C
[9] = system: KM12
[10] = system: HCT-116
[11] = system: DLD-1
[12] = system: SNB-75
[13] = system: CAKI-1
[14] = system: RXF 631
[15] = system: HOP-18
[16] = system: SF-295
[17] = system: RXF 393
[18] = system: SF-268
[19] = system: ACHN
[20] = system: HCT-15
[21] = system: SW-620
[22] = system: SNB-78
[23] = system: NCI-H522
[24] = system: A549
[25] = system: SK-OV-3
[26] = system: UACC-257
[27] = system: Malme-3M
[28] = system: CCRF-CEM
[29] = system: SK-MEL-28
[30] = system: XF498
[31] = system: COLO 205
[32] = system: MOLT-4
[33] = system: HL-60
[34] = system: TK-10
[35] = system: HCC 2998
[36] = system: SR
[37] = system: NCI-H23
[38] = system: SK-MEL-5
[39] = system: DMS-273
[40] = system: LXFL 529
[41] = system: HT-29
[42] = system: A498
[43] = system: SNB-19
[44] = system: NCI-H226
[45] = system: LOX IMVI
[46] = system: SK-MEL-2
[47] = system: SF-539
[48] = system: K562
[49] = system: OVCAR-3
[50] = system: M14
[51] = system: UO-31
[52] = system: HOP-62
[53] = system: OVCAR-8
[54] = system: IGROV-1
[55] = system: M19-MEL
[56] = system: 786-0
[57] = system: KM-20L2
[58] = system: UACC-62
[59] = system: EKVX

CN1NC(c2ccccc2)=C(C#N)C(=O)CC1c1ccc(F)cc1 (stereo not given)
GI50 [1]: > 100 µM (inactive) | GI50 [2]: > 100 µM (inactive) | GI50 [3]: > 100 µM (inactive) | GI50 [4]: > 100 µM (inactive) | GI50 [5]: > 100 µM (inactive) | GI50 [6]: > 100 µM (inactive) | GI50 [7]: > 100 µM (inactive) | GI50 [8]: > 100 µM (inactive) | GI50 [9]: > 100 µM (inactive) | GI50 [10]: > 100 µM (inactive) | GI50 [11]: > 100 µM (inactive) | GI50 [12]: 41.3 µM (inactive) | GI50 [13]: > 100 µM (inactive) | GI50 [14]: > 100 µM (inactive) | GI50 [15]: > 100 µM (inactive) | GI50 [16]: > 100 µM (inactive) | GI50 [17]: > 100 µM (inactive) | GI50 [18]: > 100 µM (inactive) | GI50 [19]: > 100 µM (inactive) | GI50 [20]: > 100 µM | GI50 [21]: > 100 µM (inactive) | GI50 [22]: > 100 µM (inactive) | GI50 [23]: 62.4 µM (inactive) | GI50 [24]: > 100 µM (inactive) | GI50 [25]: > 100 µM (inactive) | GI50 [26]: > 100 µM (inactive) | GI50 [27]: > 100 µM (inactive) | GI50 [28]: > 100 µM (inactive) | GI50 [29]: > 100 µM (inactive) | GI50 [30]: > 100 µM (inactive) | GI50 [31]: > 100 µM (inactive) | GI50 [32]: > 100 µM (inactive) | GI50 [33]: > 100 µM (inactive) | GI50 [34]: > 100 µM (inactive) | GI50 [35]: > 100 µM (inactive) | GI50 [36]: > 100 µM (inactive) | GI50 [37]: > 100 µM (inactive) | GI50 [38]: > 100 µM (inactive) | GI50 [39]: > 100 µM (inactive) | GI50 [40]: > 100 µM (inactive) | GI50 [41]: > 100 µM (inactive) | GI50 [42]: > 100 µM (inactive) | GI50 [43]: > 100 µM (inactive) | GI50 [44]: > 100 µM (inactive) | GI50 [45]: > 100 µM (inactive) | GI50 [46]: > 100 µM (inactive)

Cc1ccccc1NC(=O)C(=O)Cc1nc2ccccc2s1
GI50 [47]: > 100 µM (inactive) | GI50 [48]: > 100 µM (inactive) | GI50 [1]: > 100 µM (inactive) | GI50 [2]: > 100 µM (inactive) | GI50 [3]: > 100 µM (inactive) | GI50 [4]: > 100 µM (inactive) | GI50 [5]: > 100 µM (inactive) | GI50 [6]: > 100 µM (inactive) | GI50 [49]: > 100 µM (inactive) | GI50 [8]: > 100 µM (inactive) | GI50 [9]: > 100 µM (inactive) | GI50 [10]: > 100 µM (inactive) | GI50 [11]: > 100 µM (inactive) | GI50 [12]: > 100 µM (inactive) | GI50 [13]: > 100 µM (inactive) | GI50 [14]: > 100 µM (inactive) | GI50 [15]: > 100 µM (inactive) | GI50 [16]: > 100 µM (inactive) | GI50 [17]: > 100 µM (inactive) | GI50 [50]: > 100 µM (inactive) | GI50 [18]: > 100 µM (inactive) | GI50 [19]: > 100 µM (inactive) | GI50 [51]: > 100 µM (inactive) | GI50 [52]: > 100 µM (inactive) | GI50 [20]: > 100 µM | GI50 [21]: > 100 µM (inactive) | GI50 [22]: 92.5 µM (inactive) | GI50 [23]: > 100 µM (inactive) | GI50 [24]: > 100 µM (inactive) | GI50 [25]: > 100 µM (inactive) | GI50 [26]: > 100 µM (inactive) | GI50 [27]: > 100 µM (inactive) | GI50 [28]: > 100 µM (inactive) | GI50 [53]: > 100 µM (inactive) | GI50 [29]: > 100 µM (inactive) | GI50 [30]: > 100 µM (inactive) | GI50 [31]: > 100 µM (inactive) | GI50 [32]: > 100 µM (inactive) | GI50 [33]: > 100 µM (inactive) | GI50 [34]: > 100 µM (inactive) | GI50 [35]: > 100 µM (inactive) | GI50 [36]: > 100 µM (inactive) | GI50 [37]: > 100 µM (inactive) | GI50 [38]: > 100 µM (inactive) | GI50 [39]: > 100 µM (inactive) | GI50 [40]: > 100 µM (inactive) | GI50 [54]: > 100 µM (inactive) | GI50 [41]: > 100 µM (inactive) | GI50 [55]: > 100 µM (inactive) | GI50 [42]: > 100 µM (inactive) | GI50 [43]: > 100 µM (inactive) | GI50 [44]: > 100 µM (inactive) | GI50 [45]: > 100 µM (inactive) | GI50 [56]: > 100 µM (inactive) | GI50 [46]: > 100 µM (inactive)

O=C(CCC(=O)Nc1cccc(C(F)(F)F)c1)CC(=O)c1ccc2ccccc2c1
GI50 [57]: > 100 µM (inactive) | GI50 [47]: > 100 µM (inactive) | GI50 [48]: > 100 µM (inactive) | GI50 [1]: > 100 µM (inactive) | GI50 [2]: > 100 µM (inactive) | GI50 [3]: > 100 µM (inactive) | GI50 [4]: > 100 µM (inactive) | GI50 [5]: > 100 µM (inactive) | GI50 [6]: > 100 µM (inactive) | GI50 [49]: > 100 µM (inactive) | GI50 [7]: > 100 µM (inactive) | GI50 [8]: > 100 µM (inactive) | GI50 [58]: > 100 µM (inactive) | GI50 [9]: > 100 µM (inactive) | GI50 [10]: > 100 µM (inactive) | GI50 [11]: > 100 µM (inactive) | GI50 [13]: > 100 µM (inactive) | GI50 [14]: > 100 µM (inactive) | GI50 [15]: > 100 µM (inactive) | GI50 [16]: > 100 µM (inactive) | GI50 [50]: > 100 µM (inactive) | GI50 [18]: > 100 µM (inactive) | GI50 [19]: > 100 µM (inactive) | GI50 [51]: > 100 µM (inactive) | GI50 [20]: > 100 µM | GI50 [21]: > 100 µM (inactive) | GI50 [22]: > 100 µM (inactive) | GI50 [23]: > 100 µM (inactive) | GI50 [59]: > 100 µM (inactive) | GI50 [24]: > 100 µM (inactive) | GI50 [25]: > 100 µM (inactive) | GI50 [26]: > 100 µM (inactive) | GI50 [27]: > 100 µM (inactive) | GI50 [28]: > 100 µM (inactive) | GI50 [53]: > 100 µM (inactive) | GI50 [30]: > 100 µM (inactive) | GI50 [31]: > 100 µM (inactive) | GI50 [32]: > 100 µM (inactive) | GI50 [33]: > 100 µM (inactive) | GI50 [34]: > 100 µM (inactive) | GI50 [35]: > 100 µM (inactive) | GI50 [37]: > 100 µM (inactive) | GI50 [38]: > 100 µM (inactive) | GI50 [39]: > 100 µM (inactive) | GI50 [40]: > 100 µM (inactive) | GI50 [54]: > 100 µM (inactive) | GI50 [41]: > 100 µM (inactive) | GI50 [55]: > 100 µM (inactive) | GI50 [42]: > 100 µM (inactive) | GI50 [43]: > 100 µM (inactive) | GI50 [44]: > 100 µM (inactive) | GI50 [45]: > 100 µM (inactive) | GI50 [56]: > 100 µM (inactive) | GI50 [46]: > 100 µM (inactive)

Source: ChEMBL document CHEMBL1201862, “PubChem BioAssay data set” (2004)
